Like-named read-outs stand apart in the source and are kept apart here. *1 amine or outer side, *2 acyl side, *3 side chain or, on linkers, in order; H or OH if unused. Where no end group is shown, it is not given here. Side-chain parts run from the residue outwards. [ ]: non-standard residue; d: D form. The star is where a group is joined. C18 diacid = O=C(O)CCCCCCCCCCCCCCCCC(=O)*; γGlu = O=C(O)[C@H](CCC(=O)[*:2])N[*:1]; AEEA = NCCOCCOCC(=O)O; Aib = CC(C)(N)C(=O)O
Assays:
Format in all cases: cell-based
[1] = target: human glucagon receptor (GCGR) (Homo sapiens, UniProt P47871); assay: Gs activation measured as cAMP accumulation on human glucagon receptor (FIG. 1 radar plot); details: read-out: −p Log EC50 on human glucagon receptor (GCGR) (converted)
Source text: Here, the compounds 20, 21, 22, 28, 30, 31,32, 33, 34, 35 are shown in terms of their potencies in Gs activation, measured as CAMP accumulation, depicted in a radar plot. The numbers refer to −p Log EC50 values. […] The outer rings correspond to higher potencies, the inner rings correspond to lower potencies.

human GLP-2R = target: T1, human GLP-2R (Homo sapiens, UniProt O95838); assay: cAMP assay (HitHunter) in transiently transfected COS-7 cells expressing human GLP-2R
T1 construct: host or cells: COS-7
T1 sequence (O95838 1-553): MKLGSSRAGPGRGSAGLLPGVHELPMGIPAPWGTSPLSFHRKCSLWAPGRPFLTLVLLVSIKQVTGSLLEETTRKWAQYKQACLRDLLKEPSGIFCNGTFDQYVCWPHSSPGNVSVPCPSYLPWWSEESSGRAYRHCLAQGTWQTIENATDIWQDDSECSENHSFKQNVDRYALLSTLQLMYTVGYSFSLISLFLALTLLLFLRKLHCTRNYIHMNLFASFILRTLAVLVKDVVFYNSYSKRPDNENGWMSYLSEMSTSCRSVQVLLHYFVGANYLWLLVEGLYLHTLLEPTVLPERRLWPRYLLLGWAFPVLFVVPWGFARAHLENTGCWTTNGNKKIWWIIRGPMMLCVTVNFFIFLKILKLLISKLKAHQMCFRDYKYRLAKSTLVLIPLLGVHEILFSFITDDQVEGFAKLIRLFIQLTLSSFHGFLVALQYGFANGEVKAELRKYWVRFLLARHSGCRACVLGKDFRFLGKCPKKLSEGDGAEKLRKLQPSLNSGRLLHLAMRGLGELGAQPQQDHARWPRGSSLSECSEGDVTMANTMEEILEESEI

human SNAP-tagged GIPR = target: T2, human SNAP-tagged GIPR (Homo sapiens, UniProt P48546); assay: Receptor internalization assay, HEK293A cells expressing human SNAP-tagged GIPR
T2 construct: host or cells: HEK293A
T2 sequence (P48546 22-466): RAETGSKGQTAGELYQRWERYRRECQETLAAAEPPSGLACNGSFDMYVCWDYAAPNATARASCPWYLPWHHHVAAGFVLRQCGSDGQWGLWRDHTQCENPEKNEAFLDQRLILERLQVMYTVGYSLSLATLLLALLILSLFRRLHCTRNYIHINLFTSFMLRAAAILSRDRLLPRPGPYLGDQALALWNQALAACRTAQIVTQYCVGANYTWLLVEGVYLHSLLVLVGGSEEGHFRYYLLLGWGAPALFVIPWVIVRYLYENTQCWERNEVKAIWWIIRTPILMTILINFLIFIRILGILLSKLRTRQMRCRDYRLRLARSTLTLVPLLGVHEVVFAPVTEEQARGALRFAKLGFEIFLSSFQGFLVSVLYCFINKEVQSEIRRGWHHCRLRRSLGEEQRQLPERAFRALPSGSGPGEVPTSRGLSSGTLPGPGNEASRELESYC

human GIPR = target: T3, human GIPR (Homo sapiens, UniProt P48546); assay: cAMP assay (HitHunter) in transiently transfected COS-7 cells expressing human GIPR
T3 construct: host or cells: COS-7
T3 sequence (P48546 22-466): T2 sequence (P48546 22-466)

human SNP-tagged GLP-2R = target: T4, human SNP-tagged GLP-2R (Homo sapiens, UniProt O95838); assay: Receptor internalization assay, HEK293A cells expressing human SNAP-tagged GLP-2R; details: for Absolute hGLP-2R internalization (AUC): AUC of sigmoid curves up to 1 μM, 60 minutes at 37° C.; for Relative hGLP-2R internalization (%): relative to native ligand = 100
T4 construct: expressed in transfected cells; host or cells: HEK293A
T4 sequence (O95838 1-553): T1 sequence (O95838 1-553)

human SNAP-tagged GLP-1R = target: T5, human SNAP-tagged GLP-1R (Homo sapiens, UniProt P43220); assay: Receptor internalization assay, HEK293A cells expressing human SNAP-tagged GLP-1R; details: for Absolute hGLP-1R internalization (AUC): AUC of sigmoid curves up to 1 μM, 60 minutes at 37° C.; for Relative hGLP-1R internalization (%): relative to hGLP-1 = 100
T5 construct: expressed in transfected cells; host or cells: HEK293A

human GLP-1R = target: T6, human GLP-1R (Homo sapiens, UniProt P43220); assay: cAMP assay (HitHunter) in transiently transfected COS-7 cells expressing human GLP-1R; details: for EC50: cAMP, COS-7 cells, human GLP-1R
T6 construct: host or cells: COS-7

[2] = COS-7, read-out: Efficacy GLP-2R (Emax)
[3] = COS-7, read-out: Efficacy GIPR (Emax)
[4] = COS-7, read-out: Efficacy GLP-1R (Emax)

T5 sequence (P43220 24-463): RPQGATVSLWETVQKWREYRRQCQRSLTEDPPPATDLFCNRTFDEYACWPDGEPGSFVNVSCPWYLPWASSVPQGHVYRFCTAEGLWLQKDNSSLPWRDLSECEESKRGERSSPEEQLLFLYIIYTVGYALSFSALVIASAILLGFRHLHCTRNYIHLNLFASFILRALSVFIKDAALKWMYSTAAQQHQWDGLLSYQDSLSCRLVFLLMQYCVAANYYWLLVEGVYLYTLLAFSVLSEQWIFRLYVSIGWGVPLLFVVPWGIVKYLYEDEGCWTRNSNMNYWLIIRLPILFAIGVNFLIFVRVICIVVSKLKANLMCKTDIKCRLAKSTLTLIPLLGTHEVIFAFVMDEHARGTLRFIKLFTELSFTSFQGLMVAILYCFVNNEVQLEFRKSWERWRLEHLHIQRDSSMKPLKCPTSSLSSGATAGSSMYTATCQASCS
T6 sequence (P43220 24-463): as above
Sequence of human glucagon receptor (GCGR) (P47871 26-477): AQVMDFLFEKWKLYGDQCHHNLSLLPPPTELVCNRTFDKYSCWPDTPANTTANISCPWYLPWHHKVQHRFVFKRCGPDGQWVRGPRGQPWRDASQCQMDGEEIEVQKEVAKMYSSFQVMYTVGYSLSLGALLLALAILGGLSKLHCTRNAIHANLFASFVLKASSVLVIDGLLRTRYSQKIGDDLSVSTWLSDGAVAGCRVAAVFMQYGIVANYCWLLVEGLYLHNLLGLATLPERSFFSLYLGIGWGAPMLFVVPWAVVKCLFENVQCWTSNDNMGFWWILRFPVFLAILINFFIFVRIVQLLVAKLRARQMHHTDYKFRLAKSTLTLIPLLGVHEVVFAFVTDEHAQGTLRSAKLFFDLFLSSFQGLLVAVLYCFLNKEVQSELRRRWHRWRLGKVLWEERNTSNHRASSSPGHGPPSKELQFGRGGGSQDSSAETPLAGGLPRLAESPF

Compound | EC50 [1] | Absolute hGLP-2R internalization (AUC) (human SNP-tagged GLP-2R) | Relative hGLP-2R internalization (%) (human SNP-tagged GLP-2R) | Absolute hGLP-1R internalization (AUC) (human SNAP-tagged GLP-1R) | Relative hGLP-1R internalization (%) (human SNAP-tagged GLP-1R) | Emax (human GLP-2R; [2]) | Absolute hGIPR internalization (AUC) (human SNAP-tagged GIPR) | Relative hGIPR internalization (%) (human SNAP-tagged GIPR) | Emax (human GIPR; [3]) | Emax (human GLP-1R; [4]) | other results
HADGTFTSDYST[Aib]LDK([AEEA-AEEA-γGlu-C18 diacid])LAARDFINWLIQTKGKKNDWKHNITQ-OH [Compound 22] | > 100 nM | 38.0 | 78.2% | 78.81 | 93.70% | – | – | – | – | – | Emax (human GLP-2R; COS-7, normalized to highest concentration of the endogenous ligand, read-out: Efficacy GLP-2R (Emax)): 93%; EC50 (human GLP-2R; cAMP, COS-7 cells, human GLP-2R, read-out: EC50 (nM) GLP-2R): 0.6 nM; Absolute hGIPR internalization (AUC) (human SNAP-tagged GIPR; AUC of sigmoid curves up to 1 μM, 60 minutes at 37° C.): 7.0; GIPR internalization (in words) (human SNAP-tagged GIPR; compared to native GIP): reduced internalization compared to native GIP; Relative hGIPR internalization (%) (human SNAP-tagged GIPR; relative to hGIP 1-42 = 100): 19%; Emax (human GIPR; COS-7, normalized to highest concentration of the endogenous ligand, read-out: Efficacy GIPR (Emax)): 93%; EC50 (human GIPR; cAMP, COS-7 cells, human GIPR): 1.12 nM; GLP-2R internalization (in words) (human SNP-tagged GLP-2R; compared to native GLP-2): comparable to native GLP-1 and GLP-2; GLP-1R internalization (in words) (human SNAP-tagged GLP-1R; compared to native GLP-1): comparable to native GLP-1 and GLP-2; Emax (human GLP-1R; COS-7, normalized to highest concentration of the endogenous ligand, read-out: Efficacy GLP-1R (Emax)): 116%; EC50 (human GLP-1R; read-out: EC50 (nM) GLP-1R): 0.04 nM; EC50 (human GLP-1R; read-out: logEC50 GLP-1R (converted)): 0.0316 nM
CC[C@H](C)[C@H](NC(=O)[C@H](Cc1ccccc1)NC(=O)[C@H](CC(=O)O)NC(=O)[C@H](CCCNC(=N)N)NC(=O)[C@H](C)NC(=O)[C@H](C)NC(=O)[C@H](CC(C)C)NC(=O)[C@H](CC(N)=O)NC(=O)[C@H](CC(=O)O)NC(=O)[C@H](CC(C)C)NC(=O)[C@@H](NC(=O)[C@@H](NC(=O)[C@H](CO)NC(=O)[C@H](Cc1ccc(O)cc1)NC(=O)[C@H](CC(=O)O)NC(=O)[C@H](CO)NC(=O)[C@@H](NC(=O)[C@H](Cc1ccccc1)NC(=O)[C@@H](NC(=O)CNC(=O)[C@H](CC(=O)O)NC(=O)[C@H](C)NC(=O)[C@@H](N)Cc1c[nH]cn1)[C@@H](C)O)[C@@H](C)CC)[C@@H](C)O)[C@@H](C)CC)C(=O)N[C@@H](CC(N)=O)C(=O)N[C@@H](Cc1c[nH]c2ccccc12)C(=O)N[C@@H](CC(C)C)C(=O)N[C@H](C(=O)N[C@@H](CCC(N)=O)C(=O)N[C@H](C(=O)N[C@@H](CCCCN)C(=O)NCC(=O)N[C@@H](CCCCN)C(=O)N[C@@H](CCCCNC(=O)COCCOCCNC(=O)COCCOCCNC(=O)CC[C@H](NC(=O)CCCCCCCCCCCCCCCCC(=O)O)C(=O)O)C(=O)O)[C@@H](C)O)[C@@H](C)CC [Compound 33] | > 100 nM | 6.4 | 13.2% | 6.4 | 7.7% | 90% | 15.8 | 43% | 88% | 99% | –
CC[C@H](C)[C@H](NC(=O)[C@H](Cc1ccccc1)NC(=O)[C@H](CC(=O)O)NC(=O)[C@H](CCCNC(=N)N)NC(=O)[C@H](C)NC(=O)[C@H](C)NC(=O)[C@H](CC(C)C)NC(=O)[C@H](CCCCNC(=O)COCCOCCNC(=O)COCCOCCNC(=O)CC[C@H](NC(=O)CCCCCCCCCCCCCCCCC(=O)O)C(=O)O)NC(=O)[C@H](CC(=O)O)NC(=O)[C@H](CC(C)C)NC(=O)C(C)(C)NC(=O)[C@@H](NC(=O)[C@H](CO)NC(=O)[C@H](Cc1ccc(O)cc1)NC(=O)[C@H](CC(=O)O)NC(=O)[C@H](CO)NC(=O)[C@@H](NC(=O)[C@H](Cc1ccccc1)NC(=O)[C@@H](NC(=O)CNC(=O)[C@H](CC(=O)O)NC(=O)[C@H](C)NC(=O)[C@@H](N)Cc1c[nH]cn1)[C@@H](C)O)[C@@H](C)CC)[C@@H](C)O)C(=O)N[C@@H](CC(N)=O)C(=O)N[C@@H](Cc1c[nH]c2ccccc12)C(=O)N[C@@H](CC(C)C)C(=O)N[C@H](C(=O)N[C@@H](CCC(N)=O)C(=O)N[C@H](C(=O)N[C@@H](CCCCN)C(=O)NCC(=O)N[C@@H](CCCCN)C(=O)N[C@@H](CCCCN)C(=O)O)[C@@H](C)O)[C@@H](C)CC [Compound 31] | > 100 nM | 30.6 | 63.0% | 4.9 | 5.8% | 79% | 16.0 | 43% | 85% | 89% | –
